Reference: paper PMC8526204, “Effects of Sinapic Acid Combined with Cisplatin on the Apoptosis and Autophagy of the Hepatoma Cells HepG2 and SMMC-7721” (Evidence-based Complementary and Alternative Medicine : eCAM, 2021)
Counter-ions that a name gives are not always drawn. Like-named read-outs stand apart in the source and are kept apart here. Blank lines part the entries; values can stand above or below the molecule they belong to. Peptide text beside a SMILES is read from it. * marks the point of attachment. Cbz = O=C(OCc1ccccc1)*; CH2F = FC*

How the values were obtained:
HepG2 cells [1] = assay: Cell cycle analysis by flow cytometry (PI), HepG2; type: cell-based, human; conditions: 72 h, control 12.79 ± 0.89%
Method: The HepG2 and SMMC-7721 cells were seeded in a 6-well plate (5 × 10^5 cells/well). The cells were photographed using the inverted microscope (Eclipse Ti-S, Nikon Co., Ltd., Japan) to observe the morphological changes. The cells were collected, treated with 70% precooled ethanol (1 mL) in an ice bath, blew and mixed well, and then, fixed overnight at 4°C. The cells were stained with 25 µL PI staining solution and 10 µL RNase staining solution, according to the manufacturer's protocol, and the cell cycle was analyzed by flow cytometry (Attune NxT, Thermo Fisher Scientific Inc., USA).

HepG2 cells [2] = assay: MTT cell viability assay, HepG2; type: cell-based, human; conditions: for IC50: Homo sapiens, HepG2, Sa treatment, MTT
Method: (§1) The cells HepG2, SMMC-7721, and HL-7702 were seeded in 96-well plates containing 6,000 cells per well, supplemented with various concentrations of Sa (0–2,000 μM) and DDP (5 μM). After the cells were incubated at 37°C for 24, 48, and 72 h, they were cultured with 20 µL MTT (5 mg/mL) for 4 h. The formazan crystals were dissolved by adding 150 µL of dimethyl sulfoxide, followed by recording the absorbance at 490 nm using a microplate reader (Varioskan LUX, Thermo Fisher Scientific Inc., USA) and calculating the percentage of cell viability.

[3] = MTT cell viability assay, HepG2; type: cell-based, human; conditions: human, HepG2 cells
Method: as §1

SMMC-7721 cells [4] = assay: Western blot of apoptosis- and autophagy-related proteins, SMMC-7721; type: cell-based, human
Method: (§2) The HepG2 and SMMC-7721 cells treated with Sa/DDP were collected and using radioimmunoprecipitation assay buffer to lyse the cells at 4°C for 30 min to extract the total protein. The protein concentration of the samples was measured using the BCA protein assay kit, after centrifugation at 12,000 g at 4°C for 5 min, and denatured by boiling at 100°C. An equal amount of protein (30 μg) was resolved using the sodium dodecyl sulfate-polyacrylamide gel (10–12%) electrophoresis for 1.5 h. The proteins were then transferred onto a membrane of nitrocellulose and blocked using 5% skimmed milk for 2 h at 20°C, followed by rinsing thrice using PBS containing 0.1% Tween 20 (PBS-T), for 5 min each. Furthermore, the […] were incubated in diluted anti-Bax, Bcl-2 PARP, c-PARP, a-caspase-3, caspase-3, p62, Beclin-1, Atg5, LC3I/II, and β-actin according to 1 : 1,000, incubated overnight at 4°C, and subsequently washed repeatedly the next day. The membranes were incubated with a secondary antibody (1 : 3000) for 1 h at ambient temperature and washed repeatedly. After washing the membrane, it was developed by the FluorChem M image acquisition system (Protein Simple Inc., USA). The quantification was performed (where appropriate) using the ImageJ software (Rawak Software Inc., Stuttgart, Germany).

HepG2 cells [5] = assay: Western blot of apoptosis- and autophagy-related proteins, HepG2; type: cell-based, human
Method: as §2

HepG2 cells [6] = assay: Annexin V-FITC/PI apoptosis assay, HepG2; type: cell-based, human; conditions: HepG2, Sa 600 μM, 72 h; control 13.06 ± 1.04%
Method: (§3) The HepG2 and SMMC-7721 cells were seeded into a 6-well plate (1 × 10^5 cell/well), and after 72 h, the cells in each group were treated with trypsin and collected. The cells were rinsed twice in PBS, and a concentration of 5 × 10^5 cells/mL was treated with a binding buffer. According to the manufacturer's protocol, the cells were stained with 5 µL PI staining solution and 10 µL Annexin V-FITC staining solution with incubation for 30 min in the dark.

SMMC-7721 cells [7] = assay: Colony formation assay, SMMC-7721; type: cell-based, human; conditions: SMMC-7721, Sa 600 μM, 72 h then 10 d
Method: (§4) The HepG2 and SMMC-7721 cells were seeded in a 12-well plate (200–300 cells/well). […] Then, the recovery medium was added to the complete medium (1 mL) and cultured for 10 d. Subsequently, these cells were fixed in 4% paraformaldehyde solution (1 mL) at 37°C for 2 h, stained with 0.5% crystal violet staining solution (0.5 mL) for 15 min, and photographed, and the numbers of colonies formed were tabulated. The findings were expressed as a percentage of the number of colonies in each experimental group (assuming that the control group was 100%). The ImageJ software (Rawak Software Inc., Stuttgart, Germany) was used for analyzing the data.

HL-7702 cells = assay: MTT cell viability assay, normal liver HL-7702; type: cell-based, human; conditions: for IC50: Homo sapiens, L02, HL-7702, Sa treatment, MTT
Method: as §1, with “After” for “The cells HepG2, SMMC-7721, and HL-7702 were seeded in 96-well plates containing 6,000 cells per well, supplemented with various concentrations of Sa (0–2,000 μM) and DDP (5 μM). After”

HepG2 cells [8] = assay: Colony formation assay, HepG2; type: cell-based, human; conditions: HepG2, Sa 600 μM, 72 h then 10 d
Method: as §4

SMMC-7721 cells [9] = assay: Annexin V-FITC/PI apoptosis assay, SMMC-7721; type: cell-based, human; conditions: SMMC-7721, Sa 600 μM, 72 h; control 3.67 ± 0.34%
Method: as §3

SMMC-7721 cells [10] = assay: MTT cell viability assay, SMMC-7721; type: cell-based; conditions: Homo sapiens, SMMC-7721, Sa treatment
Method: as §1, with “After” for “The cells HepG2, SMMC-7721, and HL-7702 were seeded in 96-well plates containing 6,000 cells per well, supplemented with various concentrations of Sa (0–2,000 μM) and DDP (5 μM). After”

SMMC-7721 cells [11] = assay: Transwell migration assay, SMMC-7721; type: cell-based, human; conditions: SMMC-7721, Sa 600 μM, 24 h
Method: (§5) The lower section contained 700 μL of DMEM (including 10% FBS) along with the drug to be loaded. Briefly, 3 × 10^4 cells were added to the upper chamber while the lower chamber was filled with 10% FBS after incubating the cells for 24 h. The cells were cultured at 37°C for 24 h, fixed with a 4% paraformaldehyde solution, and stained with 0.5 mL of crystal violet. Subsequently, the cells in the upper chambers were removed by gently dabbing them with cotton swabs. These cells were photographed, and the invaded cells were observed using an inverted microscope (DM4 B, Leica Inc., Germany). Finally, the stained cells were counted in five randomly chosen fields under the microscope for further analysis.

HepG2 cells [12] = assay: Transwell migration assay, HepG2; type: cell-based, human; conditions: HepG2, Sa 600 μM, 24 h
Method: as §5

[13] = HepG2, HCQ 40 μM pretreatment 1 h then Sa 600 µM/DDP 5 µM 72 h
[14] = SMMC-7721, Sa 600 μM, 72 h, vs control
[15] = HepG2, Sa 600 μM, 72 h, vs control
[16] = HepG2, Sa 600 μM, 72 h, western blot
[17] = HepG2, Z-VAD-FMK 20 µM pretreatment 1 h then Sa 600 µM/DDP 5 µM 72 h

SMILES: N.N.[Cl][Pt][Cl] [DDP, Cisplatin]
percentage of cells in the G2/M phase (HepG2 cells [1]; HepG2, DDP 5 μM): 15.40 ± 1.23%

SMILES: CCN(CCO)CCCC(C)Nc1ccnc2cc(Cl)ccc12 (stereo not shown) [HCQ, Hydroxychloroquine sulfate, reference compound]
reduction of cell viability compared to Sa/DDP (HepG2 cells [2]; [13]): 19.07 ± 4.70% | viability at 1 h, 40 μM ([3]; HepG2, HCQ 40 μM pretreatment 1 h, no Sa/DDP, untreated 100.00 ± 19.04%): 98.3 ± 18.7% | a-caspase-3 protein expression increase compared to Sa/DDP treatment (SMMC-7721 cells [4]; SMMC-7721, HCQ 40 µM pretreatment 1 h then Sa 600 µM/DDP 5 µM 72 h): 0.73 times | a-caspase-3 protein expression increase compared to Sa/DDP treatment (HepG2 cells [5]; [13]): 0.34 times

IC50 (HepG2 cells [2]; 24 h, read-out: IC50 24 h): 1800 µM | IC50 (HepG2 cells [2]; 48 h, read-out: IC50 48 h): 1380 µM | IC50 (HepG2 cells [2]; 72 h, read-out: IC50 72 h): 794 µM | IC50 (SMMC-7721 cells [10]; 24 h, read-out: IC50 24 h): 2580 µM | IC50 (SMMC-7721 cells [10]; 48 h, read-out: IC50 48 h): 1620 µM | IC50 (SMMC-7721 cells [10]; 72 h, read-out: IC50 72 h): 1350 µM
SMILES: COc1cc(/C=C/C(=O)O)cc(OC)c1O [Sa, Sinapic acid]
viability at 72 h, 600 µM ([3]; HepG2, Sa 600 µM, 72 h): 71.3 ± 4.08% | apoptosis rate (HepG2 cells [6]): 36.00 ± 2.52% | Atg5 expression increase (SMMC-7721 cells [4]; [14]): 4.7 times | Beclin-1 expression increase (SMMC-7721 cells [4]; [14]): 2.5 times | p62 expression decrease (SMMC-7721 cells [4]; [14]): 1.7 times | proliferation activity (colony formation, control = 100%) (SMMC-7721 cells [7]): 72.90 ± 1.29% | percentage of cells in the G2/M phase (HepG2 cells [1]; HepG2, Sa 600 μM): 22.60 ± 2.26% | inhibitory effect on normal liver cells (HL-7702 cells; HL-7702, MTT): not pronounced | IC50 (HL-7702 cells; 24 h, read-out: IC50 24 h): 5060 µM | IC50 (HL-7702 cells; 48 h, read-out: IC50 48 h): 4430 µM | IC50 (HL-7702 cells; 72 h, read-out: IC50 72 h): 4020 µM | proliferation activity (colony formation, control = 100%) (HepG2 cells [8]): 71.46 ± 2.23% | Atg5 protein expression increase (HepG2 cells [5]; [15]): 2.9 fold | Beclin-1 protein expression increase (HepG2 cells [5]; [15]): 4.8 fold | p62 protein expression decrease (HepG2 cells [5]; [15]): 2.3 fold | cleaved PARP protein increase vs control (HepG2 cells [5]; [16]): 4.3 times | cleaved caspase-3 protein increase vs control (HepG2 cells [5]; [16]): 13.6 times | apoptosis rate (SMMC-7721 cells [9]): 10.74 ± 0.75% | decrease of the migration rate (SMMC-7721 cells [11]): 49.80 ± 5.78% | decrease of the migration rate (HepG2 cells [12]): 41.52 ± 8.80%

SMILES: COC(=O)C[C@H](NC(=O)[C@H](C)NC(=O)[C@@H](NC(=O)OCc1ccccc1)C(C)C)C(=O)CF [Z-VAD-FMK, reference compound] (Cbz-Val-Ala-Asp(OMe)-CH2F)
cell viability (HepG2 cells [2]; HepG2, Z-VAD-FMK 20 μM pretreatment 1 h, no Sa/DDP, untreated 100.00 ± 19.04%): 100.66 ± 12.14% | LC3II protein expression increase compared to group without Z-VAD-FMK (HepG2 cells [5]; [17]): 45.30 ± 2.05% | caspase protein lysis decrease compared to group without Z-VAD-FMK (HepG2 cells [5]; [17]): 25.22 ± 1.22%
